Source: paper PMC9000710, “Synthesis and Hemostatic Activity of New Amide Derivatives” (Molecules, 2022)
Entries after “also recorded” stand apart in the source; their conditions may differ. Where a name gives a salt, the structure may show the parent alone. Where a SMILES comes first, the peptide text is derived from it.

Tests used:
human blood plasma [1] = experiment: Clot formation and fibrinolysis (CFF) assay; format: biochemical; settings: for Amax (maximum of fibrin clot absorbance at 360 nm) / VmaxC (of Fibrin Polymerization) / VmaxF (of Fibrin Clot Lysis): control plasma assumed as 100%, mean ± SD, n = 5–7; for effect on fibrin polymerization (VmaxC) in words: tested at 10, 25, 50 mg/L
Description: The CFF assay enables analysis of both the blood plasma coagulation process and fibrinolysis efficiency. The thrombin enzyme in the reagent mixture initiates blood plasma fibrinogen polymerization, leading to an increase in absorbance in the sample until the maximal absorbance (Amax) is attained. The fibrinolytic activity of blood plasma is induced by the tissue-type plasminogen activator (t-PA). The activation of fibrinolysis in the tested samples leads to fibrin clot degradation and decreases the absorbance to the baseline.
Figure 11 An exemplary curve of blood plasma coagulation and clot lysis recorded during the clot formation and fibrinolysis (CFF) assay. The first step in the CFF test involves activation of the blood plasma coagulation cascade and fibrin clot formation (1). It is characterized by the maximal velocity of the fibrin polymerization parameter (VmaxC). The maximal absorbance (Amax) peak corresponds to the fibrin stabilization phase and is an indicator of fibrin clot thickness (2). The third step of the CFF assay covers the activation of fibrinolytic mechanisms and fibrin clot degradation (3) and is described by the maximal velocity of clot lysis (VmaxF).
Thrombin was purchased from BioMed (Lublin, Poland). A tissue-type plasminogen activator (Actilyse®) was purchased from Boehringer Ingelheim, Ingelheim am Rhein, Germany. Kinetic measurements were executed using a SpectrostarNano microplate spectrophotometer (BMG LabTech, Ortenberg, Germany).
Measurements were performed using a kinetic model, as described in our previous work. Briefly, blood plasma was preincubated with the examined substances (at final concentrations of 10, 25, and 50 mg/L) for 15 min at 37 °C. Then, 100 μL of blood plasma was added to microtiter plate wells, which was followed by 200 μL of the reagent mixture (0.75 U/mL thrombin, 225 ng/mL t-PA and 7.5 mM CaCl2) suspended in tris-buffered saline (0.05 M TBS, 0.9% NaCl; pH 7.4). Measurements of absorbance changes were started immediately and continued for 60 min at 37 °C, λ = 360 nm. The following parameters were used to determine the effects of the examined substances on the coagulation and fibrinolytic properties of the blood plasma: the maximal velocity of fibrinogen polymerization (VmaxC), which is an indicator of the plasma coagulation efficiency; the maximal absorbance (Amax), which is an indicator of the fibrin clot stabilization and its thickness; the maximal velocity of clot lysis (VmaxF), which is an indicator of blood plasma fibrinolytic activity.

human blood plasma [2] = experiment: Activated partial thromboplastin time (aPTT) clotting assay; format: biochemical; settings: for aPTT, effect versus control in words: tested at 10, 25, 50 mg/L
Description: (§1) Human blood plasma was isolated from fresh buffy coats (collected onto the citrate-dextrose solution—ACD) purchased from the Regional Centre of Blood Donation and Blood Treatment in Lodz, Poland. In the isolation procedure, the buffy coats (60 mL units) were divided into volumes of 10 mL and centrifuged (4000 rpm/15 min) in 15 mL tubes. Next, 1 mL solutions of each amide 1–8 were prepared in distilled water at concentrations of 10, 25, and 50 mg/L. Then, 450 μL of plasma and 50 μL of each amide at the tested concentrations were placed into 1.5 mL vials. The vials were vortexed (Vortex Biosan V-1 plus), incubated at 37 °C on a thermoblock (Dry Block Thermostat Biosan TDB-120), and analyzed using a Kselmed K-3002 OPTIC coagulometer (Grudziądz, Poland), based on the manufacturer’s protocols (described below). The control sample was native blood plasma, untreated with any of the examined substances.
Fifty microliters of control plasma and plasma samples treated with the amides were transferred to measuring cuvettes and placed in the thermoblock module (37 °C) of the coagulometer (KSELMED, K-3002 Optic). Then, 50 μL of Dia-APTT reagent (DIAGON Kft. Hungary; cat. no. 72048) was added. The mixture was incubated for 180 s at 37 °C. Finally, 50 μL of reagent Dia-CaCl2 (DIAGON Kft. Hungary; cat. no. 41192) was added. Measurements were started immediately.

human blood plasma [3] = experiment: Prothrombin time (PT) clotting assay; format: biochemical
Description: as §1
Fifty microliters of control plasma and plasma samples treated with the amides were transferred to measuring cuvettes and placed in the thermoblock module (37 °C) of a coagulometer (KSELMED, K-3002 Optic). Then, 100 μL of Dia-PT reagent (DIAGON Kft. Hungary; cat. no. 81100) was added. Measurements were started immediately.

human blood plasma [4] = experiment: Thrombin time (TT) clotting assay; format: biochemical
Description: as §1
Both 100 μL of control plasma and plasma samples treated with the amides were transferred to measuring cuvettes, which were placed in the thermoblock module (37 °C) of the coagulometer (KSELMED K-3002 Optic). Then, 100 μL of thrombin solution (4.5 U/mL, in 0.9% NaCl; Biomed, Lublin, Poland) was added to the cuvette. Measurements were started immediately.

[5] = Hemolysis assay (stability of erythrocytes); format: cell-based, human; settings: male, human, heparinized whole blood diluted with saline (erythrocytes)
Description: Heparinized whole blood was used from a healthy volunteer. The whole blood (10 mL) was diluted with saline solution (90 mL). For each UV-Vis measurement, 2.5 mL of diluted blood was used. For each blood sample, 1 mL of a saline solution containing hydrochlorides 1–8 at concentrations of 5, 50, and 500 mg/L was added. As a control were used blood samples with the addition of 1% solution of DMSO in saline and 1% solution of SDS in saline. In all cases, the measurements were repeated twice for each concentration. […] The cells were centrifuged, and the absorbance of the supernatant, which contained plasma and lysed erythrocytes, was measured at 540 nm. The percentage of lysis was calculated from a standard curve of lysed erythrocytes treated with SDS [52].

[6] = two lower concentrations (10 and 25 mg/L)

Row | Compound | Amax (maximum of fibrin clot absorbance at 360 nm) (human blood plasma [1]; 10 mg/L) [%] | VmaxC (of Fibrin Polymerization) (human blood plasma [1]; 10 mg/L) [%] | VmaxF (of Fibrin Clot Lysis) (human blood plasma [1]; 10 mg/L) | Amax (maximum of fibrin clot absorbance at 360 nm) (human blood plasma [1]; 25 mg/L) [%] | VmaxC (of Fibrin Polymerization) (human blood plasma [1]; 25 mg/L) [%] | VmaxF (of Fibrin Clot Lysis) (human blood plasma [1]; 25 mg/L) | Amax (maximum of fibrin clot absorbance at 360 nm) (human blood plasma [1]; 50 mg/L) [%] | VmaxC (of Fibrin Polymerization) (human blood plasma [1]; 50 mg/L) [%] | VmaxF (of Fibrin Clot Lysis) (human blood plasma [1]; 50 mg/L) | aPTT Time [% of Control] (human blood plasma [2]; c 10 mg/L) | aPTT Time [% of Control] (human blood plasma [2]; c 25 mg/L) | aPTT Time [% of Control] (human blood plasma [2]; c 50 mg/L) | aPTT, effect versus control in words (human blood plasma [2]) | PT Time [% of Control] (human blood plasma [3]; c 10 mg/L) | PT Time [% of Control] (human blood plasma [3]; c 25 mg/L) | PT Time [% of Control] (human blood plasma [3]; c 50 mg/L) | prothrombin time, effect versus control in words (human blood plasma [3]; [6]) | TT Time [% of Control] (human blood plasma [4]; c 10 mg/L) | TT Time [% of Control] (human blood plasma [4]; c 25 mg/L) | TT Time [% of Control] (human blood plasma [4]; c 50 mg/L) | further results
1 | NCCCCCC(=O)NCC1CCC(C(=O)O)CC1 (centres unmarked) [Amide 3, 6-((((1s,4s)-4-Carboxycyclohexyl)methyl)amino)-6-oxohexan-1-aminium chloride] | 107.21 ± 6.90 | 105.61 ± 7.06 | 93.23 ± 16.83% | 104.49 ± 9.80 | 103.88 ± 9.73 | 97.05 ± 24.39% | 112.98 ± 8.40 | 109.78 ± 6.46 | 102.82 ± 20.01% | 94.8 ± 4.5 % of Control | 94.7 ± 4.1 % of Control | 96.3 ± 2.8 % of Control | significantly decreased | 94.9 ± 2.2 % of Control | 95.2 ± 3.0 % of Control | 97.0 ± 3.6 % of Control | decreased | 100.1 ± 2.6 % of Control | 100.8 ± 6.9 % of Control | 97.2 ± 4.3 % of Control | hemolysis at 45 min, 5 mg/L ([5]; c 5 mg/L, 45 min): 0.44%; hemolysis at 120 min, 5 mg/L ([5]; c 5 mg/L, 120 min): 0.74%; hemolysis at 240 min, 5 mg/L ([5]; c 5 mg/L, 240 min): 0.41%; hemolysis at 45 min, 50 mg/L ([5]; c 50 mg/L, 45 min): 0%; hemolysis at 120 min, 50 mg/L ([5]; c 50 mg/L, 120 min): 0%; hemolysis at 240 min, 50 mg/L ([5]; c 50 mg/L, 240 min): 0.26%; hemolysis at 45 min, 500 mg/L ([5]; c 500 mg/L, 45 min): 0.47%; hemolysis at 120 min, 500 mg/L ([5]; c 500 mg/L, 120 min): 0.65%; hemolysis at 240 min, 500 mg/L ([5]; c 500 mg/L, 240 min): 0.23%
2 | NCC(=O)NCC(=O)O [Amide 5, Glycylglycine hydrochloride] (H-Gly-Gly-OH) | 106.44 ± 1.78 | 105.80 ± 2.97 | 90.08 ± 13.68% | 107.12 ± 4.65 | 105.88 ± 3.76 | 85.12 ± 16.98 % | 113.43 ± 7.86 | 109.83 ± 1.46 | 89.46 ± 10.48 % | 98.8 ± 5.8 % of Control | 101.1 ± 4.9 % of Control | 100.8 ± 2.6 % of Control | – | 95.0 ± 10.5 % of Control | 92.0 ± 8.5 % of Control | 93.0 ± 8.3 % of Control | – | 99.1 ± 6.1 % of Control | 99.0 ± 4.7 % of Control | 97.8 ± 3.3 % of Control | procoagulant activity judged from VmaxC and Amax, in words (human blood plasma [1]; among the tested compounds): most evident procoagulant activity; Amax parameter, effect in words (human blood plasma [1]; full range of tested concentrations (10–50 µg/mL)): significantly higher; effect on fibrin polymerization (VmaxC) in words (human blood plasma [1]): Mild pro-coagulant effects
3 | NC[C@H]1CC[C@H](C(=O)O)CC1 [TA, trans-4-(aminomethyl)cyclohexane carboxylic acid, reference compound] | 106.67 ± 3.79 | 101.38 ± 7.89 | total inhibition | 105.87 ± 6.23 | 104.75 ± 9.98 | total inhibition | 106.64 ± 4.65 | 104.85 ± 12.06 | total inhibition | – | – | – | significantly decreased | – | – | – | decreased | – | – | – | effect on fibrin polymerization (VmaxC) in words (human blood plasma [1]): did not influence; aPTT, effect versus control in words (human blood plasma [2]; listed as tranexamic acid): slightly shortened; prothrombin time, effect versus control in words (human blood plasma [3]; concentration not specified (10, 25, 50 mg/L tested), listed as tranexamic acid): slightly shortened; also recorded: slightly but statistically significantly reduced; TT, effect versus control in words (human blood plasma [4]; all used concentrations (10, 25, 50 mg/L)): no effects
